Results from PMC4055585, “Pharmacokinetics of Anti-HBV Polyoxometalate in Rats” (PLoS ONE, 2014).
Where “and” joins values, the source holds several entries; their conditions need not be identical. Equal entries are not always repeated. Where two headings read alike, the source gives them in different places.

Key:
[1] = Bile excretion after oral administration (bile duct cannulation); assay type: in vivo, Rats; details: oral 180 mg/kg, % of the drug tested
Protocol: Bile excretion: Rats (n = 6, male and female in equal) were anesthetized with diethyl ether, and bile duct were cannulated with a polyethylene tube. After recovery from anesthesia, rates were orally administered Compound 1 at a dose of 180 mg/kg BW. The bile samples were collected during 0–1, 1–2, 2–4, 4–8, 8–12, 12–24 and 24–48 h by bile duct cannulation. The bile volume was measured, and samples were frozen at −20°C until analysis.
(§1) The urine, bile, postdialysis serum and buffer samples were aliquots into 0.1 mL, treated in the same way as plasma samples.
(§2) Concentrations of Compound 1 were determined by atomic spectrometry. Samples were analyzed directly by ICP-MS. Polyoxometalate concentrations were estimated directly from measured tungsten concentrations.

[2] = parameters: method as in earlier work; details: cited from earlier work
[3] = rat, in vivo; for AUC0–96 (area under the curve up to 96 h) / AUC0–∞ (area under the total concentration-time curve) / CL (systemic clearance) / Cmax (maximum concentration) / MRT (mean residence time) / Tmax (time of peak concentration) / Vd (steady-state volume of distribution) / ke (elimination rate constant) / t1/2 (half-life): po
[4] = rat, in vivo, iv, 180 mg/kg
hepatitis B virus = system: hepatitis B virus; parameters: method as in PMID 22264474; details: cited from earlier work
[5] = Tissue distribution after oral administration; assay type: in vivo, Wistar rats; details: oral 180 mg/kg
Protocol: Five rats for each duration, 2, 24, 48 and 96 h post-dose, were sacrificed by decapitation after administration of Compound 1. The whole brain, heart, liver, spleen, lung, kidney, uterus, testis, ovary, epididymis, stomach, intestine, pancreas, thymus, fat, and skeletal muscle were rapidly dissected and harvested. All tissues and organs were weighed on an analytical balance and frozen at −20°C until analysis.
The tissue samples (except for fat and pancreas) were aliquots into 0.1 g and dipped in 3 mL concentrated HNO3 in test tubes.
(§3) Feces, fat and pancreas samples were aliquots into 0.1 g and dipped in 1 mL concentrated H2SO4 in test tubes. […] 3 mL concentrated HNO3was added at 120°C for 12 h until thorough dissolution.
as §2

[6] = Urine and feces excretion after oral administration; assay type: in vivo, Wistar rats; details: oral 180 mg/kg
Protocol: Rats were placed in metabolism cages during the experiment to facilitate urine and feces collection. Urine and feces were collected during 0–1 h, 1–2, 2–4, 4–8, 8–12, 12–24, 24–48 and […]. Urine volume and feces weight were measured, and samples were frozen at −20°C until analysis.
as §1, §3, §2

rat plasma protein = test: Plasma protein binding by equilibrium dialysis; assay type: in vitro ADME; details: for Protein binding rate, Mean: six parallel samples
Protocol: Various amounts of Compound 1 were added to pooled male rat serum to yield concentrations of 9, 18 and 36 mg/mL. The dialysis membrane was Spectrapor II (Beijing Dingguo Changsheng Biotechnology Co. Ltd, China) with a molecular weight cutoff of 12,000 to 14,000. […] Dialyzed serum and buffer volumes were collected and frozen at −20°C until analysis, and binding data were corrected for fluid shifts that occurred during dialysis. Experiments were done in six parallel samples. The following formula was used to calculate plasma protein binding rate of Compound 1 under different concentrations: [drawing 1]
Cplasma: concentration of Compound 1;
Cbuffer: concentration of Compound 1 in buffer
as §1

Cs2K4Na[SiW9Nb3O40].H2O [Compound 1]
accumulative excretion rate, bile [1]: about 0.42% | reproductive toxicity [2]: no obvious reproductive toxicity | Tmax range [3]: 6 to 180 min | half-life range [3]: 20 to 30 h | absolute bioavailability ([3]; 180 mg/kg): 14.67% | AUC0–96 (area under the curve up to 96 h) ([3]; 45 mg/kg): 150.9 ± 87.15 µg·h/mL | AUC0–∞ (area under the total concentration-time curve) ([3]; 45 mg/kg): 165.1 ± 94.98 µg·h/mL | CL (systemic clearance) ([3]; 45 mg/kg): 86.96 ± 42.45 mL/h | Cmax (maximum concentration) ([3]; 45 mg/kg): 11130 ± 8370 ng/mL | MRT (mean residence time) ([3]; 45 mg/kg): 36.45±4.495 H | Tmax (time of peak concentration) ([3]; 45 mg/kg): 2.000±0.632 H | Vd (steady-state volume of distribution) ([3]; 45 mg/kg): 3437 ± 1593 mL | ke (elimination rate constant) ([3]; 45 mg/kg): 0.025 ± 0.002 h⁻¹ | t1/2 (half-life) ([3]; 45 mg/kg): 27.91±2.606 H | AUC0–96 (area under the curve up to 96 h) ([3]; 180 mg/kg): 373.9 ± 112.7 µg·h/mL | AUC0–∞ (area under the total concentration-time curve) ([3]; 180 mg/kg): 410.1 ± 128.5 µg·h/mL | CL (systemic clearance) ([3]; 180 mg/kg): 117.1 ± 29.49 mL/h | Cmax (maximum concentration) ([3]; 180 mg/kg): 30850 ± 14250 ng/mL | MRT (mean residence time) ([3]; 180 mg/kg): 35.42±5.940 H | Tmax (time of peak concentration) ([3]; 180 mg/kg): 1.833±0.753 H | Vd (steady-state volume of distribution) ([3]; 180 mg/kg): 4620 ± 829.9 mL | ke (elimination rate constant) ([3]; 180 mg/kg): 0.025 ± 0.003 h⁻¹ | t1/2 (half-life) ([3]; 180 mg/kg): 27.88±3.221 H | AUC0–96 (area under the curve up to 96 h) ([3]; 720 mg/kg): 1216 ± 402.2 µg·h/mL | AUC0–∞ (area under the total concentration-time curve) ([3]; 720 mg/kg): 1316 ± 449.7 µg·h/mL | CL (systemic clearance) ([3]; 720 mg/kg): 153.7 ± 62.35 mL/h | Cmax (maximum concentration) ([3]; 720 mg/kg): 49290 ± 9939 ng/mL | MRT (mean residence time) ([3]; 720 mg/kg): 37.57±4.676 H | Tmax (time of peak concentration) ([3]; 720 mg/kg): 2.167±0.753 H | Vd (steady-state volume of distribution) ([3]; 720 mg/kg): 5583 ± 2416 mL | ke (elimination rate constant) ([3]; 720 mg/kg): 0.028 ± 0.003 h⁻¹ | t1/2 (half-life) ([3]; 720 mg/kg): 24.92±2.178 H | AUC0–96 (area under the curve up to 96 h) [4]: 2549 ± 327.3 µg·h/mL | AUC0–∞ (area under the total concentration-time curve) [4]: 2965 ± 342.8 µg·h/mL | CL (systemic clearance) [4]: 15.34 ± 1.695 mL/h | Cmax (maximum concentration) [4]: 235400 ± 66910 ng/mL | MRT (mean residence time) [4]: 47.05 ± 3.529 h | Tmax (time of peak concentration) [4]: 8.34 ± 5.16 min | Vd (steady-state volume of distribution) [4]: 679.7 ± 114.7 mL | compartment model fitted by the pharmacokinetic behavior [4]: two compartment model | ke (elimination rate constant) [4]: 0.023 ± 0.004 h⁻¹ | t1/2 (half-life) [4]: 30.76 ± 4.658 h | secretion of HBV antigens and HBV DNA (hepatitis B virus; HepG2.2.15 cells): effectively suppressed | activity against HBV (hepatitis B virus; HepG 2.2.15): high activity against HBV | toxicity (hepatitis B virus; HepG 2.2.15): low toxicity | content in kidney and liver relative to the other tissues [5]: 10–70 times | deposition in the brain [5]: Less deposition | tissue with highest deposition ([5]; 16 tissues): kidney, followed by the stomach, intestine and liver | content in tissues at 96 h relative to peak content ([5]; 96 h): less than 10% | total excreted, % of the total amount administered ([6]; till 48 h): about 30.84% | total excreted, % of the total amount administered ([6]; till 72 h): about 31.1% | extent of binding to rat plasma protein (rat plasma protein; 36 mg/ml): moderately bound | extent of binding to rat plasma protein (rat plasma protein; 9–18 mg/ml): highly bound | Protein binding rate (single samples) (rat plasma protein; added concentration 9 mg/mL, rat serum, dialysis 48 h, 37°C, pH 7.4): 47.79% and 54.71% and 73.72% and 62.68% and 67.76% and 66.13% | Protein binding rate, Mean (rat plasma protein; added concentration 9 mg/mL, dialysis 48 h): 62.13% | Protein binding rate, Mean (rat plasma protein; added concentration 18 mg/mL, dialysis 48 h): 71.20% | Protein binding rate, Mean (rat plasma protein; added concentration 36 mg/mL, dialysis 48 h): 49.00%
